According to patent US20230381261A1, “A Purified Extract Isolated from Agrimonia Coreana Nakai Containing Abundant Amount of Active Ingredient, the Preparation Thereof, the Composition Comprising the Same as an Active Ingredient for Preventing or Treating Inflammation, Allergy and Atopic Dermatitis and the Use Thereof” (priority 2020, published 2023):

Assays:
[1] = tested on: IL-2 release in Jurkat T cell; assay: Inhibition of IL-2 release in Jurkat T cell (ELISA, anti-CD3/anti-CD28 stimulation); format: cell-based; conditions: Homo sapiens; 10 μM BTP2 control; anti-CD3 and anti-CD28 stimulated Jurkat T cell; 72 hours; read-out: Inhibition rate on IL-2 release (%)
Protocol: In order to determine the anti-immunological activity of inventive extract, following inhibition test of cytokine release in Jukrat T cell was performed according to the procedure disclosed in the literature (ARTHRITIS & RHEUMATISM Vol. 52, No. 9, September 2005, pp 2730-2739).
ELISA (Enzyme-linked immunosorbent assay) was performed to determine the release of IL-2 in Jukrat T cell.
Jukrat T cell (TIB-152, American Type Culture Collection(ATCC)) was inoculated into 96 well plates (2×10^5 cells/well) and stimulated with anti-CD3 and anti-CD 28.
In order to determine the inhibition effect on the IL-2 release of T cell of inventive extract, the test samples, i.e., the extract disclosed in Comparative Examples and Examples, were inoculated into the well plate to be 100 μg/mL with the stimuli of anti-CD3 and anti-CD 28.
10 μM BTP2([N-{4-[3,5-bis(Trifluoromethyl)-1H-pyrazol-1-yl]phenyl}-4-methyl-1,2,3-thiadiazole-5-carboxamide], 203890-M, Calbiochem) was used as a control group. […]
The release of cytokines was analyzed by IL-2 specifically reacting ELISA kit (BGK60568, Peprotech Inc. NJ, USA) and the content of IL-2 was determined according to the instruction manual of manufacture.

CD4+ T cell = assay: Inhibition of CD4+ T cell proliferation (CFSE, flow cytometry, anti-CD3/anti-CD28 stimulation); format: cell-based; conditions: Homo sapiens; 10 μM BTP2 control; anti-CD3 and anti-CD28 stimulated CD4+ T cell; 72 hours; read-out: Inhibition rate on T cell proliferation (%)
Protocol: In order to determine the anti-immunological activity of inventive extract, following inhibition test of proliferation of T cell isolated from human blood was performed according to the procedure disclosed in the literature (J Immunol Jul. 15, 2002, 169 (2) 802-808).
In order to evaluate the anti-immunological activity of inventive extract, PBMC(peripheral blood mononuclear cell) and T cell which had been used in the various immunological analysis, were prepared from human blood using Fiicoll (GE17-5442-02, GE Healthcare) according to the previous literature (BIOPRESERVATION AND BIOBANKING, Volume 14, Number 5, 2016).
CD4+ T cell was carefully isolated from the isolated PBMC using by T cell isolation kit (130-096-533, Miltenyi biotec.) according to the manufacture's manual instruction.
The anti-immunological effect on T cell was evaluated by the inhibition effect on the proliferation of CD4+ T cell. […]
The T cell treated with test sample was incubated at 37° C. for 72 hours in 5% CO2 incubator (MCO-18AC, Panasonic) and then the cell was collected to be analyzed using Flow cytometry (BD LSRFortessa, BD Biosciences).

## Cc1nnsc1C(=O)Nc1ccc(-n2nc(C(F)(F)F)cc2C(F)(F)F)cc1 [BTP2, N-{4-[3,5-bis(Trifluoromethyl)-1H-pyrazol-1-yl]phenyl}-4-methyl-1,2,3-thiadiazole-5-carboxamide]
[1]
  inhibition at 10 µM: 90.3 ± 0.552%
CD4+ T cell
  inhibition at 10 µM: 98.84 ± 0.0006%
